According to PubChem BioAssay AID2744 (NMMLSC, 2010):
Active and inactive are the calls of the source.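 The calls were made as follows: active = fitted half-maximal concentration for changing reporter fluorescence at or below a set limit; inactive = the rest.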

target: Citrate synthase, peroxisomal (Saccharomyces cerevisiae (strain ATCC 204508 / S288c)) (UniProt P08679); assay: yeast TOR pathway CIT2-GFP reporter potency – flow cytometry, MLPCN hits, dose response (AID 2744); conditions: S. cerevisiae CIT2-GFP strain, 3 h, at 33 µM (top of the series)
Sequence (P08679 whole entry, looked up): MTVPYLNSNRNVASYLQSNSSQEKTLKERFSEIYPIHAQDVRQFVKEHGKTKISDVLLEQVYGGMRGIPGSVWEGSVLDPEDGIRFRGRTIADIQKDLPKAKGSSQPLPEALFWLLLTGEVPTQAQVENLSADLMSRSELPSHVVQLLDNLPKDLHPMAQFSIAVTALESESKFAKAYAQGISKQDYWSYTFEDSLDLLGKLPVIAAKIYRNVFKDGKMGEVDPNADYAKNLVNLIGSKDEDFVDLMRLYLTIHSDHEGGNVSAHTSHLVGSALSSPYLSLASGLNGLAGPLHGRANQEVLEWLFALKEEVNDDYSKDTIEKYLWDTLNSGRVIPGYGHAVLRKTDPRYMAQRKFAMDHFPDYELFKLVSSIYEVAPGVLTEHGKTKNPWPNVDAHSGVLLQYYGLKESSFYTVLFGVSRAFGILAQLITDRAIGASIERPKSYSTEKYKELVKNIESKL

SMILES | GFP fluorescence, higher = induction
CC(=O)OC[C@]12CC[C@H]3[C@@](C)(CC[C@H]4C(C)(C)CCC[C@]34C)[C@@H]1C[C@H](C1=CC(=O)O[C@@H]1OC(C)=O)O2 | inactive
O=C(COc1ccccc1)NNC(=S)NC(=O)c1ccc(Cl)cc1Cl | inactive
COc1cc(/C=C2/C(=O)ON=C2c2ccccc2)ccc1O | inactive
COc1cc(/C=C2\C(=O)ON=C2c2ccccc2)cc(Br)c1O | inactive
O=C1c2cccc3c([N+](=O)[O-])ccc(c23)C(=O)N1O | inactive
COc1ccc(OC)c(S(=O)(=O)ON2C(=O)c3ccccc3C2=O)c1 | inactive
Cc1ccc(C(=O)NNC(=S)NC(=O)COc2ccccc2)cc1 | inactive
Cc1ccc(C2=NOC(=O)/C2=C\c2ccc(C)o2)cc1 | inactive
O=C1Nc2ccccc2/C1=C\C(=O)c1ccccc1 | inactive
CC(C)(C)C(=O)C(Cl)C(=O)Nc1ccccc1 (stereo unspecified) | inactive
COc1ccc(N2CCN(C(=O)c3ccc(Br)cc3)CC2)c([N+](=O)[O-])c1 | inactive
O=C(C#Cc1ccccc1)c1ccco1 | inactive
Cc1ccc(S(=O)(=O)c2ccc([N+](=O)[O-])cn2)cc1 | inactive
O=S(=O)(CCN(CCS(=O)(=O)C(F)(F)F)CC1CCCO1)C(F)(F)F (stereo unspecified) | inactive
O=[N+]([O-])c1ccc(S(=O)(=O)c2ccccc2)nc1 | inactive
O=C(Nc1nc2ccc(F)cc2s1)c1ccccn1 | inactive
COc1ccccc1[C@]1(C)ON(c2ccccc2C(F)(F)F)C1=O | inactive
Cc1cc(O)c(C(=O)/C=C/c2ccc(Cl)cc2)c(=O)o1 | inactive
Cc1nn2c(-c3ccncc3)nnc2c2ccccc12 | inactive
CCCN1CCc2c(sc(NC(=S)NC(=O)c3ccccc3)c2C#N)C1 | inactive

SMILES | GFP fluorescence, higher = induction
COc1cccc(/C=C2\C(=O)N(c3cccc(C)c3)C(=O)c3ccccc32)c1 | inactive
CC1(c2ccccc2)ON(c2ccccc2C(F)(F)F)C1=O (stereo unspecified) | inactive
Oc1c(Br)cc(Br)cc1C=Nc1ccc2[nH]ncc2c1 | inactive
O=C1NC(=O)N(Cc2ccc(F)cc2)C(=O)/C1=C/c1cccs1 | inactive
CC(C)[C@@]1(c2ccccc2)ON(c2ccccc2C(F)(F)F)C1=O | inactive
CC(Oc1cc2oc(=O)c3c(c2cc1Cl)CCC3)C(=O)NCCN1CCOCC1 (stereo unspecified) | inactive
O=C(NNC(=S)NC(=O)c1ccco1)c1ccc(F)cc1 | inactive
CCOC(=O)CS(=O)(=O)c1nc(-c2ccccc2)cc(C(F)(F)F)n1 | inactive
Cc1[nH]n(-c2ncc(-c3ccccc3)s2)c(=O)c1C(c1ccc(Cl)cc1)C(C#N)C#N (stereo unspecified) | inactive
O=C1ON=C(c2ccccc2)/C1=C/c1ccco1 | inactive
CC(C)(C)n1nc(-c2ccc(F)cc2)c2c(N)ncnc21 | inactive
O=C(Nc1nnc(-c2ccc(F)cc2)o1)c1cccc([N+](=O)[O-])c1 | inactive
O=C(Nc1ccccc1)c1nnsc1S(=O)(=O)c1ccc(Cl)cc1 | inactive
CS(=O)(=O)N1N=C(c2ccccc2)CC1c1ccc2c(c1)OCO2 (stereo unspecified) | inactive
O=[N+]([O-])c1cnc(Sc2ccncn2)s1 | inactive
O=[N+]([O-])c1cc(CN2CCN(c3ccccc3)CC2)c(O)c2ncccc12 | inactive
Oc1c(C(Nc2cccc(C(F)(F)F)c2)c2ccncc2)ccc2cccnc12 (stereo unspecified) | inactive
COc1ccc(CCNC2=C(Cl)C(=O)N(CCc3ccccc3)C2=O)cc1OC | inactive
N#C/C(=C\c1cc(Br)ccc1F)C(=O)NC1CC1 | inactive
COc1ccccc1N=Cc1nc(-c2ccccc2)oc1OC(C)=O | inactive

SMILES | GFP fluorescence, higher = induction
Cc1ccsc1/C=C1\C(=O)NC(=S)N(C)C1=O | inactive
C#CCOCCOCCOCCNc1nc(N2CCN(C(=O)CCCCCCCCCCNC(=O)[C@H](CCCCN)n3cc(CCO)nn3)CC2)nc(N2CCN(C(=O)CCCCCCCCCCNC(=O)[C@H](CCCN=C(N)N)n3cc(C[C@@H](C)CC)nn3)CC2)n1 | inactive
Cc1c(C(=O)Nc2nc(-c3ccccn3)cs2)oc2ccccc12 | inactive
CCN(CC(=O)Nc1cc(S(=O)(=O)N2CCOCC2)ccc1Cl)Cc1ccccc1 | inactive
COc1cc(CNC(=O)CCCCCCC(C)C)ccc1O | inactive
CCOc1ccc(C(C)=O)cc1N1C(=O)C2C3C=CC(O3)C2C1=O (stereo unspecified) | inactive
Cc1ccc(-c2nc(C)sc2CC(=O)Nc2nnc(C)s2)cc1 | inactive
Cc1ccc2nc(Cl)c3nnnn3c2c1 | inactive
CCCS(=O)(=O)c1nnnn1-c1cccc(OC)c1 | inactive
Cc1cc(C2CCCCC2)n(O)c(=O)c1 | inactive
O=C(c1ccccc1)c1ccccc1N1C(=O)C=CC1=O | inactive
CCOC(=O)c1c(C)oc2c1c(C(c1cccnc1)N1CCOCC1)c(O)c1ccccc12 (stereo unspecified) | inactive
O=C(COc1ccccc1)N1CCN(c2ncnc3c2cnn3-c2ccccc2)CC1 | inactive
O=C1C(Cl)=C(NCCc2ccccc2)C(=O)N1CCc1ccccc1 | inactive
O=C1C2C3C=CC(CO)(O3)C2C(=O)N1c1ccc(-c2ccccc2)cc1 (stereo unspecified) | inactive
Oc1c(I)cc(Cl)c2cccnc12 | inactive
CC[C@H](C)/C=C(C)/C=C/C1=CC2=C(Cl)C(=O)[C@@](C)(OC(C)=O)C(=O)C2=CO1 | inactive
CCCCC1OC23CCCCC2C(C#N)(C(=N)O3)C1(C#N)C#N (stereo unspecified) | inactive

same assay, conditions: S. cerevisiae CIT2-GFP strain, flow cytometry fluorescence, 3 h

SMILES | EC50 [nM]
CC1(C)C[C@H]2C=C(C=O)[C@]3(C=O)C[C@]3(C)[C@H]2C1 | 1410
N/C(Cc1ccc(Cl)cc1Cl)=N\OC(=O)c1cccs1 | 1480
N/C(Cc1ccc(Cl)cc1)=N\OC(=O)c1ccccc1 | 3350
